Source: ChEMBL document CHEMBL1201862, “PubChem BioAssay data set” (2004)
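How tested: cells in 96-well plates exposed to compound for 48 hours at five concentrations. At the GI50, growth is halved.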 The source made the active and inactive calls. No stated cut-off is given here; in the data, active = GI50 up to about 1.1 µM and inactive = higher.

Tests used:
Assay in all cases: NCI tumour cell line growth inhibition, 48 h
786-0 = tested on: 786-0
A498 = tested on: A498
A549 = tested on: A549
ACHN = tested on: ACHN
BT-549 = tested on: BT-549
CAKI-1 = tested on: CAKI-1
CCRF-CEM = tested on: CCRF-CEM
COLO 205 = tested on: COLO 205
DU-145 = tested on: DU-145
EKVX = tested on: EKVX
HCC 2998 = tested on: HCC 2998
HCT-116 = tested on: HCT-116
HCT-15 = tested on: HCT-15
HOP-62 = tested on: HOP-62
HOP-92 = tested on: HOP-92
HT-29 = tested on: HT-29
Hs-578T = tested on: Hs-578T
IGROV-1 = tested on: IGROV-1
K562 = tested on: K562
KM12 = tested on: KM12
LOX IMVI = tested on: LOX IMVI
M14 = tested on: M14
MCF7 = tested on: MCF7
MDA-MB-231 = tested on: MDA-MB-231
MDA-MB-435 = tested on: MDA-MB-435
MOLT-4 = tested on: MOLT-4
NCI-H226 = tested on: NCI-H226
NCI-H23 = tested on: NCI-H23
NCI-H522 = tested on: NCI-H522
NCI/ADR-RES = tested on: NCI/ADR-RES
OVCAR-3 = tested on: OVCAR-3
OVCAR-4 = tested on: OVCAR-4
OVCAR-5 = tested on: OVCAR-5
OVCAR-8 = tested on: OVCAR-8
PC-3 = tested on: PC-3
RPMI-8226 = tested on: RPMI-8226
RXF 393 = tested on: RXF 393
SF-268 = tested on: SF-268
SF-295 = tested on: SF-295
SF-539 = tested on: SF-539
SK-MEL-28 = tested on: SK-MEL-28
SK-MEL-2 = tested on: SK-MEL-2
SK-MEL-5 = tested on: SK-MEL-5
SK-OV-3 = tested on: SK-OV-3
SN12C = tested on: SN12C
SNB-19 = tested on: SNB-19
SNB-75 = tested on: SNB-75
SW-620 = tested on: SW-620
T47D = tested on: T47D
TK-10 = tested on: TK-10
U-251 = tested on: U-251
UACC-257 = tested on: UACC-257
UACC-62 = tested on: UACC-62
UO-31 = tested on: UO-31

COC(=O)CCCC(=O)C1=NN(c2ccc(Cl)cc2)Cc2ccccc2N1
GI50 (786-0): 17.6 µM (inactive) | GI50 (A498): 36.1 µM (inactive) | GI50 (A549): 96.4 µM (inactive) | GI50 (ACHN): > 100 µM (inactive) | GI50 (BT-549): > 100 µM (inactive) | GI50 (CAKI-1): > 100 µM (inactive) | GI50 (CCRF-CEM): > 100 µM (inactive) | GI50 (COLO 205): 54 µM (inactive) | GI50 (DU-145): > 100 µM (inactive) | GI50 (EKVX): 70.6 µM (inactive) | GI50 (HCC 2998): > 100 µM (inactive) | GI50 (HCT-116): > 100 µM (inactive) | GI50 (HCT-15): 95.1 µM | GI50 (HOP-62): 60.5 µM (inactive) | GI50 (HOP-92): > 100 µM (inactive) | GI50 (HT-29): 98.6 µM (inactive) | GI50 (Hs-578T): 68.4 µM (inactive) | GI50 (IGROV-1): > 100 µM (inactive) | GI50 (K562): > 100 µM (inactive) | GI50 (KM12): > 100 µM (inactive) | GI50 (LOX IMVI): > 100 µM (inactive) | GI50 (M14): > 100 µM (inactive) | GI50 (MCF7): 75.9 µM (inactive) | GI50 (MDA-MB-231): > 100 µM (inactive) | GI50 (MDA-MB-435): > 100 µM (inactive) | GI50 (MOLT-4): > 100 µM (inactive) | GI50 (NCI-H226): 51.4 µM (inactive) | GI50 (NCI-H23): > 100 µM (inactive) | GI50 (NCI-H522): 54.7 µM (inactive) | GI50 (NCI/ADR-RES): 79.4 µM (inactive) | GI50 (OVCAR-3): 93.8 µM (inactive) | GI50 (OVCAR-4): 20.7 µM (inactive) | GI50 (OVCAR-5): > 100 µM (inactive) | GI50 (OVCAR-8): 56.4 µM (inactive) | GI50 (PC-3): 91 µM (inactive) | GI50 (RPMI-8226): > 100 µM (inactive) | GI50 (RXF 393): 86.1 µM (inactive) | GI50 (SF-268): > 100 µM (inactive) | GI50 (SF-295): > 100 µM (inactive) | GI50 (SF-539): > 100 µM (inactive) | GI50 (SK-MEL-28): > 100 µM (inactive) | GI50 (SK-MEL-2): > 100 µM (inactive) | GI50 (SK-MEL-5): > 100 µM (inactive) | GI50 (SK-OV-3): > 100 µM (inactive) | GI50 (SN12C): > 100 µM (inactive) | GI50 (SNB-19): > 100 µM (inactive) | GI50 (SNB-75): 88.3 µM (inactive) | GI50 (SW-620): > 100 µM (inactive) | GI50 (T47D): 5.56 µM (inactive) | GI50 (TK-10): > 100 µM (inactive) | GI50 (U-251): > 100 µM (inactive) | GI50 (UACC-257): > 100 µM (inactive) | GI50 (UACC-62): 27.3 µM (inactive) | GI50 (UO-31): > 100 µM (inactive)
